In patent US20140186468A1, “DIAGNOSING SUBSETS OF TRIPLE-NEGATIVE BREAST CANCER” (priority 2012, published 2014):

Legend:
[1] = tested on: BOGA cells; assay: Analysis of aberrant chromosomes in metaphase spreads; type: cell-based, human
Procedure: Cells collected 24 hr post-IR were analyzed for genomic instability by quantitating the percentage of metaphases presenting with chromosomal aberrations, as shown in the images. N, number of independent experiments (50 metaphases analyzed per condition in each experiment). […] (FIG. 5C) Control and BOGA cells were incubated with the cathepsin inhibitor E-64 or vehicle control (C) for 24 hr prior to IR, and the extent of genomic instability assessed as in FIG. 5B. […] Treatment protocol was as in FIG. 5B. […] Treatment performed as in FIG. 5C. […] All values expressed as mean±SEM. N, number of independent experiments; *p value of statistical significance (*p≦0.05).
Cells were treated with the PARPi EB-47 (E8405, Sigma-Aldrich) diluted in water at a concentration of 1.2 μg/mL for 48 hours.

[2] = tested on: BOGA cells (BRCA1-deficient MCF7 cells that overcome growth arrest); assay: Western blot of 53BP1 protein levels in BOGA cells after treatment; type: cell-based, human; settings: vitamin D 10^−7M or E-64 10 μM vs vehicle
Procedure: (FIG. 2A) MCF7 cells were transduced with shRNAs specific for depletion of 53BP1 (sh 53BP1), BRCA1 (sh BRCA1), or both combined. After selection (puromycin and/or G418), BRCA1, 53BP1, and CTSL levels were monitored by western. […] (FIG. 2C) Control and BOGA cells were transduced with sh CTSL or sh scr and the levels of CTSL, BRCA1, and 53BP1 monitored by western blot. […] (FIG. 2E) Control or BOGA cells were incubated with the broad cathepsin inhibitor E-64 (10 μM) or with vehicle (H2O), and the levels of 53BP1 and CTSL monitored by western blot.
BGS was the vehicle in control media.
Cells were incubated with the broad spectrum cathepsin inhibitor E-64 (E3132, Sigma-Aldrich) diluted in water at a concentration of 10 μM for 24 hours.
Briefly, cells were washed twice with PBS, and incubated in CSK I buffer (10 mM PIPES pH6.8, 100 mM NaCl, 300 mM sucrose, 3 mM MgCl2, 1 mM EGTA, and 0.5% Triton X-100) for 5 minutes. Coverslips were washed 5 times with cold PBS and fixed in modified STF buffer (150 mM 2-Bromo-2-nitro-1,3,-propanediol, 108 mM diazolidinyl urea, 10 mM Na citrate, and 50 nM EDTA pH 5.7) for 30 minutes at room temperature. Coverslips were then washed twice with cold PBS and permeabilized (PB buffer: 100 mM Tris-HCl pH 7.4, 50 mM EDTA pH 8.0, and 0.5% Triton X-100) for 15 minutes at room temperature followed by 2 washes in PBS. […]

[3] = tested on: BOGA cells; assay: Relative cell numbers 4 days after IR (recovery from IR); type: cell-based, human; settings: 4 days after combined treatment with IR
[4] = tested on: MEFs; settings: cited from earlier work
[5] = cited from earlier work
[6] = tested on: OH mammary carcinoma system; settings: mouse model; cited from earlier work

CC(C)C[C@H](NC(=O)[C@H]1O[C@@H]1C(=O)O)C(=O)NCCCCN=C(N)N [E-64]
percentage of metaphases with aberrant chromosomes after IR ([1]; treated 24 hr prior to 2 Gy, analysed 24 hr post-IR): markedly increased genomic instability after IR
53BP1 protein levels (western blot) [2]: increased levels of 53BP1 protein
recovery from IR (relative cell numbers) [3]: significantly reduced their recovery from IR

Nc1ncnc2c1ncn2[C@@H]1O[C@H](C(=O)N2CCN(CC(=O)Nc3cccc4c3CNC4=O)CC2)[C@@H](O)[C@H]1O [PARPi]
genomic instability (metaphases with chromosomal aberrations), PARPi alone ([1]; EB-47 1.2 μg/mL for 48 hr): does not result in profound genomic instability

C=C1/C(=C\C=C2/CCC[C@]3(C)[C@@H]([C@H](C)CCCC(C)(C)O)CC[C@@H]23)C[C@@H](O)C[C@@H]1O [vitamin D, 1α,25-dihydroxyvitamin D3]
53BP1 protein stability [4]: stabilizes 53BP1 protein in MEFs
CTSL activity [4]: inhibits CTSL activity
intake in published cases of toxicity involving hypercalcemia ([5]; cases with known dose and 25-hydroxy-vitamin D levels): 40,000 IU per day
sustained intake producing overt toxicity ([5]; healthy adults, after several months): more than 1250 micrograms/day

NC(=S)N/N=C(/c1cccc(O)c1)c1cccc(Br)c1 [KGP94]
malignant breast tumour growth delay [6]: showed great promise in this mouse model
